Test [1] concerns the target T1, Dihydrofolate reductase (Rattus norvegicus, UniProt Q920D2).
T1 sequence (Q920D2 whole entry): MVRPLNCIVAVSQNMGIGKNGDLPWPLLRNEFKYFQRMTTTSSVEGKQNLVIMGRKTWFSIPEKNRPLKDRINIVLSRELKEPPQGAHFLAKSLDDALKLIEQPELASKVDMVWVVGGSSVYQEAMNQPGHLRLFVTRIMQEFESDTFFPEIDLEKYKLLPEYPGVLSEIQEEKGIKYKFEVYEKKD
Description: Inhibitory activity against rat liver dihydrofolate reductase.

For test [2], the system named is Pneumocystis carinii. The experiment in a line: Ratio of inhibitory concentration of rat liver and Pneumocystis carinii DHFR.
For test [3], the target named is T2, Bifunctional dihydrofolate reductase-thymidylate synthase (Toxoplasma gondii, UniProt Q07422).
T2 sequence (Q07422 whole entry): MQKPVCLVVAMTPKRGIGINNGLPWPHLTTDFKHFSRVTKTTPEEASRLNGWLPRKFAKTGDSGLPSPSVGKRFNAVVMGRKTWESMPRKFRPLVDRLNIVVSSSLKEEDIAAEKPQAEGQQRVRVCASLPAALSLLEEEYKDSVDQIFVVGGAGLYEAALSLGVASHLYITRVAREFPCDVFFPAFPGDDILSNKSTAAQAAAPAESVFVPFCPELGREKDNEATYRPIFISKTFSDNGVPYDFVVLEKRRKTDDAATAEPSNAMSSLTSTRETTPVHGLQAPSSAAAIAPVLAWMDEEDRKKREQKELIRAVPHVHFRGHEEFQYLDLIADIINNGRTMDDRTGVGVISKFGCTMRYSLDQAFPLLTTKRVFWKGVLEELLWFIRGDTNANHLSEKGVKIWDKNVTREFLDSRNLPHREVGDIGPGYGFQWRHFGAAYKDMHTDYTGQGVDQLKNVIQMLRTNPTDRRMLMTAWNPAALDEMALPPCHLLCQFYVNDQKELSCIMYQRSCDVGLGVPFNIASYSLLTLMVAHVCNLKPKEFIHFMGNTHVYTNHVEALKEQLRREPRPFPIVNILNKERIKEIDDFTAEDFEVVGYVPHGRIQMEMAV
Description: Inhibitory activity against Toxoplasma gondii dihydrofolate reductase.

Test [4] is described as follows: Ratio of inhibitory concentration of Rat liver and Pneumocystis carinii DHFR.
A short description of test [5]: Ratio of inhibitory concentration of Rat liver and Toxoplasma gondii DHFR.
Test [6] can be described thus: pRatio of inhibitory concentration of Rat liver and Pneumocystis carinii DHFR.

Structures are written as SMILES.

In the case of `COc1ccc(N(C)Cc2ccc3nc(N)nc(N)c3n2)cc1`, the IC50 (commonly the concentration needed to halve the response being measured) in test [1] was determined as 18 nM; in test [3], 16 nM. Also, the Selectivity in test [2] came out at 0.072.

With `COc1ccccc1N(C)Cc1ccc2nc(N)nc(N)c2n1`, the IC50 was 120 nM in test [1] and 26 nM in test [3]. For the same molecule, in test [2], the Selectivity was 0.24.

Consider `COc1ccccc1NCc1ccc2nc(N)nc(N)c2n1`, for which the IC50 was determined as 420 nM in test [1] and 120 nM in test [3]. Further, in test [2], the Selectivity was 0.16.

Regarding `COc1ccc(NCc2ccc3nc(N)nc(N)c3n2)cc1`, the IC50 was found to be 73 nM in test [1] and 54 nM in test [3]. For the same molecule, the Selectivity in test [2] amounted to 0.09.

Turning to `COc1cccc(N(C)Cc2ccc3nc(N)nc(N)c3n2)c1`, the 50% inhibitory concentration (IC50) turned out to be 35 nM in test [1] and 15 nM in test [3]. Moreover, the Selectivity in test [2] stood at 0.36.

`COc1ccc(OC)c(NCc2ccc3nc(N)nc(N)c3n2)c1`: the IC50 in test [1] worked out at 280 nM; in test [3] it was 120 nM. Besides, the Selectivity in test [2] came out at 0.06.

As for `CN(Cc1ccc2nc(N)nc(N)c2n1)c1c(Cl)cc(Cl)cc1Cl`, the results for the IC50 in test [1] and in test [3] were 52 nM and 44 nM, respectively. The Selectivity in test [2] was 0.43.

Consider `Nc1nc(N)c2nc(CNc3ccccc3)ccc2n1`, for which the IC50 was 260 nM in test [1] and 85 nM in test [3]. Also, the Selectivity in test [2] worked out at 0.15.

`Nc1nc(N)c2nc(CNc3cccc4ccccc34)ccc2n1`: the IC50 in test [1] came to 40 nM; in test [3] it was 26 nM. The Selectivity worked out at 0.17 in test [4] and 1.54 in test [5].

Regarding `CN(Cc1ccc2nc(N)nc(N)c2n1)c1ccc(Cl)c(Cl)c1`, the half-inhibitory concentration (IC50) in test [1] was 17 nM; in test [3], 27 nM. For the same molecule, the Selectivity in test [2] was 0.45.

As to `CC(=O)c1ccc(N(C)Cc2ccc3nc(N)nc(N)c3n2)cc1`, the IC50 in test [1] stood at 5.1 nM; in test [3], 15 nM. The Selectivity in test [2] is 0.04.

As to `CN(Cc1ccc2nc(N)nc(N)c2n1)c1cc(Cl)c(Cl)c(Cl)c1`, the concentration for half-maximal inhibition (IC50) came out at 87 nM in test [1] and 38 nM in test [3]. Also, the Selectivity in test [2] came to 0.35.

On to `CN(Cc1ccc2nc(N)nc(N)c2n1)c1ccc(C(=O)C(F)(F)F)cc1`, for which the IC50 is 32 nM in test [1] and 46 nM in test [3]. Further, in test [2], the Selectivity was found to be 0.13.

For the molecule `CN(Cc1ccc2nc(N)nc(N)c2n1)c1cccc(Cl)c1`, the Selectivity in test [2] came to 0.032.

Regarding `C#CCN(Cc1ccc2nc(N)nc(N)c2n1)c1ccc(C(C)=O)cc1`, the figures for the IC50 in test [1] and in test [3] were 15 nM and 20 nM, respectively. For the same molecule, the Selectivity in test [2] stood at 0.07.

As for `CN(Cc1ccc2nc(N)nc(N)c2n1)c1cccc2ccccc12`, the IC50 in test [1] was found to be 7.3 nM; in test [3] it was 18 nM. In addition, the Selectivity in test [2] is 0.18.

Regarding `COc1cccc(NCc2ccc3nc(N)nc(N)c3n2)c1`, the 50% inhibitory concentration (IC50) turned out to be 200 nM in test [1] and 100 nM in test [3]. The Selectivity in test [2] was determined as 0.12.

`Nc1nc(N)c2nc(CNc3cc(Cl)ccc3Cl)ccc2n1`: the values for the IC50 in test [1] and in test [3] were 200 nM and 91 nM, respectively. Besides, the Selectivity in test [2] was found to be 0.13.

Turning to `Nc1nc(N)c2nc(CNc3ccc(Cl)cc3Cl)ccc2n1`, the values for the IC50 in test [1] and in test [3] were 88 nM and 50 nM, respectively. The Selectivity in test [2] stood at 0.12.

As for `Nc1nc(N)c2nc(CSc3ccccc3)ccc2n1`, the IC50 was 520 nM in test [1] and 130 nM in test [3]. Besides, the Selectivity in test [2] came out at 0.26.

Turning to `CN(Cc1ccc2nc(N)nc(N)c2n1)c1ccc(Cl)cc1Cl`, the results for the half-inhibitory concentration (IC50) in test [1] and in test [3] were 58 nM and 50 nM, respectively. The Selectivity in test [2] came to 0.12.

Consider `COc1cc(NCc2ccc3nc(N)nc(N)c3n2)cc(OC)c1OC`, for which the concentration for half-maximal inhibition (IC50) in test [1] came out at 200 nM; in test [3] it was 40 nM. Besides, in test [2], the Selectivity was 0.1.

With `C#CCN(Cc1ccc2nc(N)nc(N)c2n1)c1ccc(C(=O)C(F)(F)F)cc1`, the results for the 50% inhibitory concentration (IC50) in test [1] and in test [3] were 7.5 nM and 54 nM, respectively. Besides, the Selectivity in test [2] turned out to be 0.06.

Regarding `Nc1nc(N)c2nc(CNc3ccc4ccccc4c3)ccc2n1`, the IC50 in test [1] is 210 nM; in test [3], 160 nM. Also, the Selectivity came out at 0.13 in test [4] and 1.31 in test [5].

In the case of `Nc1nc(N)c2nc(CSc3ccc4ccccc4c3)ccc2n1`, the half-maximal inhibitory concentration (IC50) in test [1] came to 86 nM; in test [3] it was 48 nM. The Selectivity in test [2] worked out at 0.23.

Regarding `COc1ccc(N(C)Cc2ccc3nc(N)nc(N)c3n2)c(OC)c1`, the results for the half-maximal inhibitory concentration (IC50) in test [1] and in test [3] were 16 nM and 14 nM, respectively. For the same molecule, the Selectivity in test [2] was determined as 0.1.

For the molecule `Nc1nc(N)c2nc(CNc3c(Cl)cc(Cl)cc3Cl)ccc2n1`, the values for the IC50 in test [1] and in test [3] were 570 nM and 46 nM, respectively. Further, the Selectivity in test [2] was determined as 0.29.

As for `COc1ccc(OC)c(N(C)Cc2ccc3nc(N)nc(N)c3n2)c1`, the IC50 in test [1] came out at 50 nM; in test [3], 25 nM. In addition, the Selectivity in test [2] turned out to be 0.24.

For `Nc1nc(N)c2nc(CNc3cccc(Cl)c3)ccc2n1`, the IC50 in test [1] was 140 nM; in test [3] it was 130 nM. In test [2], the Selectivity stood at 0.07.

With `COc1ccc(NCc2ccc3nc(N)nc(N)c3n2)c(OC)c1`, the IC50 worked out at 320 nM in test [1] and 140 nM in test [3]. In addition, the Selectivity in test [2] came to 0.06.

Consider `Nc1nc(N)c2nc(CNc3ccccc3Cl)ccc2n1`, for which the concentration for half-maximal inhibition (IC50) came out at 140 nM in test [1] and 110 nM in test [3]. Moreover, the Selectivity in test [2] amounted to 0.26.

`Nc1nc(N)c2nc(CNc3c(Cl)cccc3Cl)ccc2n1`: the IC50 was determined as 82 nM in test [1] and 28 nM in test [3]. The Selectivity in test [6] is 0.082.

As to `Nc1nc(N)c2nc(CNc3cc(Cl)c(Cl)c(Cl)c3)ccc2n1`, the IC50 in test [1] is 44 nM; in test [3], 87 nM. The Selectivity in test [2] was determined as 0.07.

For `Nc1nc(N)c2nc(CSc3ccccc3)cnc2n1`, the IC50 stood at 246000 nM in test [1] and 770 nM in test [3]. Moreover, in test [2], the Selectivity is 25.9.

Take `CN(Cc1ccc2nc(N)nc(N)c2n1)c1c(Cl)cccc1Cl`: the IC50 stood at 48 nM in test [1] and 30 nM in test [3]. Besides, the Selectivity in test [2] worked out at 0.28.

Turning to `CN(Cc1ccc2nc(N)nc(N)c2n1)c1ccccc1`, the values for the IC50 in test [1] and in test [3] were 24 nM and 8.4 nM, respectively. For the same molecule, the Selectivity in test [2] came to 0.08.

Regarding `COc1cc(N(C)Cc2ccc3nc(N)nc(N)c3n2)cc(OC)c1OC`, the Selectivity in test [2] turned out to be 0.2.

As to `COc1ccc(NCc2ccc3nc(N)nc(N)c3n2)cc1OC`, the IC50 in test [1] stood at 60 nM; in test [3], 90 nM. Also, the Selectivity in test [2] worked out at 0.07.

As for `Nc1nc(N)c2nc(CNc3ccc(Cl)c(Cl)c3)ccc2n1`, the IC50 in test [1] is 54 nM; in test [3], 57 nM. The Selectivity in test [2] was determined as 0.13.

As to `Nc1nc(N)c2nc(CSc3cccc4ccccc34)ccc2n1`, the IC50 in test [1] came to 160 nM; in test [3], 49 nM. Besides, the Selectivity in test [2] worked out at 0.34.

As to `CN(Cc1ccc2nc(N)nc(N)c2n1)c1ccccc1Cl`, the concentration for half-maximal inhibition (IC50) was found to be 120 nM in test [1] and 15 nM in test [3]. In addition, in test [2], the Selectivity was 0.57.

For the molecule `CC(=O)c1ccc(NCc2ccc3nc(N)nc(N)c3n2)cc1`, the IC50 was 2.5 nM in test [1] and 27 nM in test [3]. Also, in test [2], the Selectivity is 0.01.

In the case of `COc1ccc(N(C)Cc2ccc3nc(N)nc(N)c3n2)cc1OC`, the IC50 in test [1] was determined as 2.7 nM; in test [3], 9.8 nM. Also, the Selectivity in test [2] was found to be 0.02.

As to `CN(Cc1ccc2nc(N)nc(N)c2n1)c1cc(Cl)ccc1Cl`, the results for the IC50 in test [1] and in test [3] were 47 nM and 25 nM, respectively. In test [2], the Selectivity is 0.31.

On to `CN(Cc1ccc2nc(N)nc(N)c2n1)c1ccc2ccccc2c1`, for which the values for the half-inhibitory concentration (IC50) in test [1] and in test [3] were 7.2 nM and 16 nM, respectively. The Selectivity in test [2] came to 0.14.

For the molecule `COc1ccc(SCc2cnc3nc(N)nc(N)c3c2C)cc1`, the half-maximal inhibitory concentration (IC50) came out at 520 nM in test [1] and 63 nM in test [3]. Moreover, the Selectivity in test [2] amounted to 0.93.

The values are drawn from ChEMBL document CHEMBL1129583, “Nonclassical 2,4-diamino-8-deazafolate analogues as inhibitors of dihydrofolate reductases from rat liver, Pneumocystis carinii, and Toxoplasma gondii” (J Med Chem, 1996).
